Results as given in PMC7913925, “Design and Evaluation of a Polypeptide That Mimics the Integrin Binding Site for EDA Fibronectin to Block Profibrotic Cell Activity” (International Journal of Molecular Sciences, 2021).
Bridges are numbered along the chain shown (N, C = ends). Where no end group is shown, it is not given here.

Key:
[1] = system: human HFL1 lung fibroblast cells, α-SMA mRNA; experiment: α-SMA mRNA expression (qRT-PCR) in TGF-β1-treated HFL1; assay type: cell-based
Protocol: HFL1 cells were cultured in Kaighn’s modified Ham’s F-12 (F-12K) medium (Sigma-Aldrich) containing NaHCO3 and HEPES buffered to pH 7. Cells were grown to confluence in T75 culture flasks in the presence of 10% fetal bovine serum (FBS; Gibco, Thermo Fisher Scientific, Waltham, MA, USA). HFL1 cells were subcultured using 0.05% trypsin at a ratio of 1:3. NIH/3T3 cells were cultured in Dulbecco’s Modified Eagle Medium (DMEM; HyClone, Thermo Fisher Scientific) containing 100 U/mL penicillin and 100 μg/mL streptomycin. Cells were grown to confluence in T75 culture flasks in the presence of 10% FBS. NIH/3T3 cells were subcultured using 0.05% trypsin/EDTA at a ratio of 1:3. All cells were maintained at 37 °C and 5% CO2, and growth medium was replenished every 3 days until experimentation. Cells were growth-arrested in serum-free medium for 48 h before experiments, and all experiments were performed under serum-free conditions using cells between passages 3 and 8.
Reverse transcription (RT) and real-time quantitative PCR (qRT-PCR) were used to assess ACTA2/Acta2, Col1a1, Col3a1, Fn1, Eda-Fn1, Mmp9, Tgfb1, Ltbp1, Hic5, and Mrtfa mRNA expressions. Custom PCR primers were designed in-house (Table 2) and then synthesized by BGI (Beijing, China). […]

[2] = system: integrin α4 protein (ITGA4); experiment: Western blot total protein ITGA4; assay type: cell-based; conditions: 48 h TGF-β1, AF38Pep or TGF-β1+AF38Pep
osteopontin (OPN) = experiment: Western blot total protein OPN; assay type: cell-based; conditions: 48 h, TGF-β1+AF38Pep
OPN–ITGA4 interaction = experiment: Co-IP of OPN with ITGA4; assay type: cell-based; conditions: 48 h, Co-IP with anti-ITGA4
Protocol: Total protein was extracted from cells in RIPA lysis buffer containing 1% protease inhibitor cocktail, 1% phenylmethylsulfonyl fluoride, and 1% sodium orthovanadate (Santa Cruz Biotechnology, Santa Cruz, CA, USA). Protein was quantified by Micro BCA Protein Assay Kit (Thermo Fisher Scientific) before 7.5% SDS-PAGE and transfer to nitrocellulose. Membranes were blocked with 5% bovine serum albumin (BSA; Sigma-Aldrich)/0.5% Tween-20 (Sigma-Aldrich)/PBS for 1 h, RT, followed by incubation with primary antibodies diluted in 1% BSA/0.1% Tween-20/PBS, overnight at 4 °C. Primary antibodies were: anti-phosphoY204/Y187 ERK1/2 (1:1000); anti-ERK1/2 (1:1000); anti-phosphoY861 FAK (1:1000); anti-FAK (1:2000). Immunoblotting for anti-GAPDH (1:2500) was used as a protein loading control. Following wash steps, membranes were incubated in goat anti-rabbit IgG H&L secondary antibody (horseradish peroxidase, HRP conjugate, […]) (Abcam; 1:5000 dilution, 1% BSA/0.1% Tween-20/PBS). Detection was performed using Immobilon reagent (Merck Millipore, Burlington, MA, USA) and imaged using a Tanon 5500 Chemiluminescent Imaging System (Tanon, Shanghai, China).
A volume of 25 µg total protein from cell lysate in nondenaturing lysis buffer containing protease inhibitors was immunoprecipitated (IP) using anti-ITGA4 antibodies linked to protein A/G sepharose beads (Abcam). […]

[3] = system: Mmp9 mRNA in NIH/3T3 fibroblasts; experiment: qRT-PCR Mmp9 mRNA; assay type: cell-based, mouse; conditions: 48 h, TGF-β1 10 ng/mL
Protocol: (§1) Reverse transcription (RT) and real-time quantitative PCR (qRT-PCR) were used to assess ACTA2/Acta2, Col1a1, Col3a1, Fn1, Eda-Fn1, Mmp9, Tgfb1, Ltbp1, Hic5, and Mrtfa mRNA expressions. Custom PCR primers were designed in-house (Table 2) and then synthesized by BGI (Beijing, China). Cells were grown in 6-well culture plates and washed with phosphate buffered saline (PBS) before lysis with TRIzon Reagent (CWBio, Beijing, China) and total RNA purification according to the manufacturer’s protocol. Reverse transcription was carried using the TransScript First-Strand cDNA Synthesis SuperMix kit according to the manufacturer’s protocol (TransGen, Beijing, China), using the random primer method for the initiation of cDNA synthesis. Nuclease-free H2O replaced the RNA sample to serve as a negative control for the reverse transcription reaction. For qRT-PCR, 10 µL 2× TransStart Top Green qPCR SuperMix was added to each well of a 96-well PCR plate containing 0.4 µL forward primer, 0.4 µL reverse primer, […], and nuclease-free water to a total volume of 20 µL. The qRT-PCR reaction was completed using a CFX96 Real-Time PCR Detection System (Bio-Rad Laboratories, Hercules, CA, USA). Amplification used the following parameters: 94 °C for 30 s, followed by 40 cycles of 94 °C for 5 s, 55 °C for 15 s, 72 °C for 10 s, and then a dissociation stage (melt-curve). […]

Col1a1 mRNA = experiment: qRT-PCR Col1a1 mRNA; assay type: cell-based, mouse
Protocol: as §1

Col3a1 mRNA = experiment: qRT-PCR Col3a1 mRNA; assay type: cell-based, mouse
Protocol: as §1

Fn1 mRNA = experiment: qRT-PCR Fn1 mRNA; assay type: cell-based, mouse
Protocol: as §1

[4] = system: NIH/3T3 cells, total collagen; experiment: Hydroxyproline assay, total collagen synthesis; assay type: cell-based, mouse; conditions: 48 h, TGF-β1 + AF38Pep; % of cells that only received TGF-β1
Protocol: Approximately 4 × 10^6 of TGF-β1- and/or AF38Pep-treated NIH/3T3 fibroblast cells were harvested and homogenized in 1:1 conditioned medium to HCl (10N), before incubation at 120 °C for 24 h or until complete sample hydrolyzation. Cell-associated and soluble collagen contents were assessed using the Chondrex Hydroxyproline Assay kit (Chondrex, Redmond, WA, USA) according to the manufacturer’s protocol. In brief, 10 µL of sample, standard or blank control solution was added in duplicate to a 96-well clear-bottomed absorbance plate. Next, 100 µL of 1× chloramine-T solution was added to the wells and incubated at room temperature (RT) for 20 min. After incubation, 100 µL 1× DMAB solution was added to the wells and incubated at 60 °C for 30 min, with mild agitation at 5 min intervals. The plate O.D. values were read at 540 nm and sample values were compared to the values of the standard curve. The total collagen content was determined using the following equation:Collagen level (µg/mL) = Hydroxyproline level (µg/mL) × (100/13.5)

OPN–ITGA4 binding (OPN–ITGA4 interaction): did not influence OPN–ITGA4 binding
Sequence: VMPYISTTPAKPCTSENCGNSWYGGFKSKNENKIYFIN (disulfide 13-18 (inferred)) [AF38Pep]
attenuation of TGF-β1-induced α-SMA mRNA ([1]; HFL1, 48 h, 0.1–10 µg/mL): significantly reduced by 0.1–10 µg/mL peptide at 48 h
attenuation of TGF-β1-induced α-SMA mRNA ([1]; HFL1, 72 h, 10 µg/mL): only 10 µg/mL was sufficient for inhibition of expression at 72 h
ITGA4 total protein [2]: remained unaffected
OPN protein expression (osteopontin (OPN)): significantly attenuated
MMP9 mRNA expression [3]: attenuated
collagen type I mRNA expression (Col1a1 mRNA; 72 h, TGF-β1 + AF38Pep): all inhibited
collagen type I mRNA expression (Col1a1 mRNA; by 48 h, vs TGF-β1-only): significant attenuation
collagen type III mRNA expression (Col3a1 mRNA; 72 h, TGF-β1 + AF38Pep): all inhibited
collagen type III mRNA expression (Col3a1 mRNA; by 48 h, vs TGF-β1-only): significant attenuation
fibronectin mRNA expression (Fn1 mRNA; 72 h, TGF-β1 + AF38Pep): all inhibited
fibronectin mRNA expression (Fn1 mRNA; by 48 h, vs TGF-β1-only): significant attenuation
total collagen synthesis relative to TGF-β1 only [4]: approximately 60%
